# In ChEMBL document CHEMBL3526031, “Mechanistic studies on the absorption and disposition of scutellarin in humans: selective OATP2B1-mediated hepatic uptake is a likely key determinant for its unique pharmacokinetic characteristics” (Drug Metab Dispos, 2012):
# Tests used:
# Liver microsome [1] = experiment: Drug metabolism in human liver microsomes assessed as formation of scutellarein-6,7-diglucuronide after 7 mins by HPLC/UV analysis; format: ADME; conditions: for Km / Vmax: human, microsomes, 7 min
# [2] = molecular target: ATP-dependent translocase ABCB1 (Homo sapiens, UniProt P08183); experiment: Inhibition of human MDR1-mediated N-methyl quinine formation using inside-out membrane vesicles by LC-MS/MS analysis; format: ADME
# Sequence of ATP-dependent translocase ABCB1 (P08183 whole entry): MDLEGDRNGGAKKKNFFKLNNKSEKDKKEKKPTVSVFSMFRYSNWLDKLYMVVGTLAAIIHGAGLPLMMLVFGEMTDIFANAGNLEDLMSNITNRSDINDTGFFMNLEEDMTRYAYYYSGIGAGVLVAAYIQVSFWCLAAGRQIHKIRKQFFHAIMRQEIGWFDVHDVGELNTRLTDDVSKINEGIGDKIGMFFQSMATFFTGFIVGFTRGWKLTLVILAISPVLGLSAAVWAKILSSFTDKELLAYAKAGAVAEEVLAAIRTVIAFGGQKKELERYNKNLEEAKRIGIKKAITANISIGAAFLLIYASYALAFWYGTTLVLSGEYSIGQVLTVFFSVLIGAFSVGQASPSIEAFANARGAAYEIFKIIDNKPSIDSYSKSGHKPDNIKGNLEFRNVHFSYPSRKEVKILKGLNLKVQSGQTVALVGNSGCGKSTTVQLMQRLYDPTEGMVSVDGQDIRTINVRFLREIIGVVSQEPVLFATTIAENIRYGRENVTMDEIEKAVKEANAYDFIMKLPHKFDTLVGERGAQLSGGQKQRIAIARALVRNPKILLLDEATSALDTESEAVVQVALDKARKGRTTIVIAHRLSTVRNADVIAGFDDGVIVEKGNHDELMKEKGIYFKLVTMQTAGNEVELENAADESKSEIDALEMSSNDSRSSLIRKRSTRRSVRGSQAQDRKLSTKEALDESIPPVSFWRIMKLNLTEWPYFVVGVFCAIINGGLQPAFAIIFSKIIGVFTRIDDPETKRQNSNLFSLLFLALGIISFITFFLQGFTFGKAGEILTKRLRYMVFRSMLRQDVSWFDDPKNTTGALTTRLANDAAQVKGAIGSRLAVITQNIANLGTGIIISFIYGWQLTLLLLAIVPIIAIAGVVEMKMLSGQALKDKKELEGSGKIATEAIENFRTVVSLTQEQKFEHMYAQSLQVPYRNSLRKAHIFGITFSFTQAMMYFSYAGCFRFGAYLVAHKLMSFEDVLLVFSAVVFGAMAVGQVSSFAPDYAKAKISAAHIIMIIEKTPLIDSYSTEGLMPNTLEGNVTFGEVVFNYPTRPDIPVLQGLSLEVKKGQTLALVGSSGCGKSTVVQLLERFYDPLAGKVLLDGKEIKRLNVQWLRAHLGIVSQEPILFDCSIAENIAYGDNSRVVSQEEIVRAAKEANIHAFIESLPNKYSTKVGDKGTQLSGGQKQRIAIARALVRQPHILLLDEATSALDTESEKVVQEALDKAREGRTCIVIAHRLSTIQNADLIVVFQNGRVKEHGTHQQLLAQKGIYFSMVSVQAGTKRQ
# Liver microsome [3] = experiment: Ratio of Vmax to Km for drug metabolism in rat liver microsomes assessed as formation of scutellarein-6,7-diglucuronide after 7 mins by HPLC/UV analysis; format: ADME
# OATP2B1 = molecular target: T1, OATP2B1 (Homo sapiens, UniProt O94956); experiment: Drug uptake assessed as OATP2B1 (unknown origin)-mediated drug transport expressed in HEK293 cells by LC-MS/MS analysis relative to control; format: ADME, cell-based; conditions: HEK293 cells expressing OATP2B1
# T1 sequence (O94956 whole entry): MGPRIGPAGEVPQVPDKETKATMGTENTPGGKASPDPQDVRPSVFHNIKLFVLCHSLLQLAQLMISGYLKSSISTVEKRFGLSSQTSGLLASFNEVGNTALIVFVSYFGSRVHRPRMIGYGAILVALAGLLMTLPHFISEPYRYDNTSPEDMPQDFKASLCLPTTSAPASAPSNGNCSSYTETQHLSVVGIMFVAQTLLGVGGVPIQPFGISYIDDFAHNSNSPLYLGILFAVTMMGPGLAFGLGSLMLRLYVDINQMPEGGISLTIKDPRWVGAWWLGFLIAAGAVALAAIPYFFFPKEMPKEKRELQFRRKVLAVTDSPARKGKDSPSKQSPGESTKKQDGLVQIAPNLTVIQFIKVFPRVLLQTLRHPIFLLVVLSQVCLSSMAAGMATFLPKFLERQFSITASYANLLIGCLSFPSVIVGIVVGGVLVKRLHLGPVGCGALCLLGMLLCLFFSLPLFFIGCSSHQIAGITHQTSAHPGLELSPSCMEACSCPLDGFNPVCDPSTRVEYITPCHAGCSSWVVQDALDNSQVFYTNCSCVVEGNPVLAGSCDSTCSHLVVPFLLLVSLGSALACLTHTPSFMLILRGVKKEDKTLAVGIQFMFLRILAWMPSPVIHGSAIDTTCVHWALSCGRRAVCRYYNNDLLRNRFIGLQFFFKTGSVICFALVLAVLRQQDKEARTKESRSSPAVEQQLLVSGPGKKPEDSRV
# [4] = Ratio of Vmax to Km for drug metabolism in human intestinal microsomes assessed as formation of scutellarein-6,7-diglucuronide after 7 mins by HPLC/UV analysis; format: ADME, Intestine, Microsome
# [5] = Drug metabolism in human intestinal microsomes assessed as formation of scutellarein-6,7-diglucuronide after 7 mins by HPLC/UV analysis; format: ADME, Intestine, Microsome; conditions: for Km / Vmax: human, microsomes, 7 min
# [6] = molecular target: ATP-binding cassette sub-family C member 3 (Homo sapiens, UniProt O15438); experiment: Inhibition of human MRP3-mediated estradiol-17beta-D-glucuronide formation using inside-out membrane vesicles by LC-MS/MS analysis
# Sequence of ATP-binding cassette sub-family C member 3 (O15438 whole entry): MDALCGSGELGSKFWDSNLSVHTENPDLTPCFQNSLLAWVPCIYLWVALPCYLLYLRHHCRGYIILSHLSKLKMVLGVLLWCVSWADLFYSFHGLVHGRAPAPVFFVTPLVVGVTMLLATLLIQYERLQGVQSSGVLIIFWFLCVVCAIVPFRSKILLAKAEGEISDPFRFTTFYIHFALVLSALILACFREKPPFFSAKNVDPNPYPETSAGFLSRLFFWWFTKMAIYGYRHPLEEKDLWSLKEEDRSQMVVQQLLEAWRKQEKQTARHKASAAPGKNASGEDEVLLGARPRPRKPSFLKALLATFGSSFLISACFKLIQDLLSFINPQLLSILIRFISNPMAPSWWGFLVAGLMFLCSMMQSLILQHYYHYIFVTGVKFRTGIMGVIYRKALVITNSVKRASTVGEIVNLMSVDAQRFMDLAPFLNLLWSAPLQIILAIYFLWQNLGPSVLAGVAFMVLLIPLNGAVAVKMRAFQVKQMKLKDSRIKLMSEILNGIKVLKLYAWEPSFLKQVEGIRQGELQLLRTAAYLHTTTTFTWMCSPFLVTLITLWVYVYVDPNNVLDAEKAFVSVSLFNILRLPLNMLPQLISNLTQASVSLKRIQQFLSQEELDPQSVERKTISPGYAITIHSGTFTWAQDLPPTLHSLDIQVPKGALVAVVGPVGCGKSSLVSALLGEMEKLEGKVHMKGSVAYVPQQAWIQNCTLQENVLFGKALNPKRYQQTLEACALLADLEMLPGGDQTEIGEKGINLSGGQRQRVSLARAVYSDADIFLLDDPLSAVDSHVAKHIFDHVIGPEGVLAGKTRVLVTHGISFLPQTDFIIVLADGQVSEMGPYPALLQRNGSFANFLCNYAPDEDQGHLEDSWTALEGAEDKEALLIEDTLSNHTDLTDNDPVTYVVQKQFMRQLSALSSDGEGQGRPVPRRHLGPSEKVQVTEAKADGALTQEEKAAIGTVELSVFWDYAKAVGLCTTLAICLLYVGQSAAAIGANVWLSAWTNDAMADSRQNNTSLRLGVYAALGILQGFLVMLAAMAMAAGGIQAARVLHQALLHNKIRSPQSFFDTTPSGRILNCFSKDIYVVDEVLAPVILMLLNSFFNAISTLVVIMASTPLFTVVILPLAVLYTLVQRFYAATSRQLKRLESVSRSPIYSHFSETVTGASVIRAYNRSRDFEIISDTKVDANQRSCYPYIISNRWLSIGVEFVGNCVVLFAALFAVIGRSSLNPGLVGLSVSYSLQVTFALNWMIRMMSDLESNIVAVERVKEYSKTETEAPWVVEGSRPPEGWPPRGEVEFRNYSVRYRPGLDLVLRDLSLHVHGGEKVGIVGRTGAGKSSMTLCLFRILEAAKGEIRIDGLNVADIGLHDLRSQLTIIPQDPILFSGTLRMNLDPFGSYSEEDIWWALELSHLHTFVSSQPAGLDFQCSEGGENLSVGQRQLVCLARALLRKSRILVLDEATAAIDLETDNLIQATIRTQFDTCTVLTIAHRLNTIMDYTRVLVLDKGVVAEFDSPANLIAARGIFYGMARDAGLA
# [7] = molecular target: T2, Broad substrate specificity ATP-binding cassette transporter ABCG2 (Homo sapiens, UniProt Q9UNQ0); experiment: Inhibition of human BCRP-mediated methotrexate transport using inside-out membrane vesicles by LC-MS/MS analysis; format: ADME
# T2 sequence (Q9UNQ0 whole entry): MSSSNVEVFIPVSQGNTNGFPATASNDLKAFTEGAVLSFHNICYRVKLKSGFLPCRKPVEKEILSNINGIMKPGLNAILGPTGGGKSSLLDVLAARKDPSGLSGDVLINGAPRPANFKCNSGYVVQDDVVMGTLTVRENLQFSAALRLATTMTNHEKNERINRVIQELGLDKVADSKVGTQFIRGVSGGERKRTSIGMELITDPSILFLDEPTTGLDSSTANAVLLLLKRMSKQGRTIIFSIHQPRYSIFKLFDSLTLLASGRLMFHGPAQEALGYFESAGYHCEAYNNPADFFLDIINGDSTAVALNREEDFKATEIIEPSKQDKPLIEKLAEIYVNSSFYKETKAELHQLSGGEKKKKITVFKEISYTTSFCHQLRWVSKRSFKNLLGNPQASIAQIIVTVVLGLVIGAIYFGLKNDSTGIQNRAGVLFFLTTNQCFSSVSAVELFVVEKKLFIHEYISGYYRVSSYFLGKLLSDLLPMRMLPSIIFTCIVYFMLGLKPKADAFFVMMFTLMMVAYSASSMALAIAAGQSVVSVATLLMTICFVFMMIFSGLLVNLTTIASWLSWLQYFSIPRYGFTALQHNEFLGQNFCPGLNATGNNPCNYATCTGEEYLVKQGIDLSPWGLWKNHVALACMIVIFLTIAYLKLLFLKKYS
# [8] = molecular target: ATP-binding cassette sub-family C member 2 (Homo sapiens, UniProt Q92887); experiment: Inhibition of human MRP2-mediated estradiol-17beta-D-glucuronide formation using inside-out membrane vesicles by LC-MS/MS analysis
# Liver microsome [9] = experiment: Drug metabolism in rat liver microsomes assessed as formation of scutellarein-6,7-diglucuronide after 7 mins by HPLC/UV analysis; format: ADME; conditions: for Km / Vmax: rat, microsomes, 7 min
# [10] = molecular target: T3, UDP-glucuronosyltransferase 1A10 (Homo sapiens, UniProt Q9HAW8); experiment: Drug metabolism assessed as human recombinant UGT1A10-mediated formation of scutellarein-6,7-diglucuronide after 25 mins by HPLC/UV analysis; format: ADME
# T3 sequence (Q9HAW8 whole entry): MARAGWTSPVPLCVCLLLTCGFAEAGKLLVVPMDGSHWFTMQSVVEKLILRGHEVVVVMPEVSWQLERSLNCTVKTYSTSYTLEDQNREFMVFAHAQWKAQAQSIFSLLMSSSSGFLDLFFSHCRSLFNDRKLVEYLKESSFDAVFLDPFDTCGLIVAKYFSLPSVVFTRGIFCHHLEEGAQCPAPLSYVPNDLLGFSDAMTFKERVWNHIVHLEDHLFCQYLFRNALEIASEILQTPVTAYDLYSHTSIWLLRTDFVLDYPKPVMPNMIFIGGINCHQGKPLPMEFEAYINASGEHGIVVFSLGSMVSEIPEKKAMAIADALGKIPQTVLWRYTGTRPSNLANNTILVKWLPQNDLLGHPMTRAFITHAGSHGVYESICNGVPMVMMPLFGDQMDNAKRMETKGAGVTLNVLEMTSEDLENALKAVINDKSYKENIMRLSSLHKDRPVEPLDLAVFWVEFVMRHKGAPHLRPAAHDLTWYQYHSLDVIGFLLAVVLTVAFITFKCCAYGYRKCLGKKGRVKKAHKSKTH
# [11] = Drug metabolism in rat intestinal microsomes assessed as formation of scutellarein-6,7-diglucuronide after 7 mins by HPLC/UV analysis; format: ADME, Intestine, Microsome; conditions: for Km / Vmax: rat, microsomes, 7 min
# [12] = molecular target: Multidrug resistance-associated protein 1 (Homo sapiens, UniProt P33527); experiment: Inhibition of human MRP1-mediated estradiol-17beta-D-glucuronide formation using inside-out membrane vesicles by LC-MS/MS analysis
# Sequence of Multidrug resistance-associated protein 1 (P33527 whole entry): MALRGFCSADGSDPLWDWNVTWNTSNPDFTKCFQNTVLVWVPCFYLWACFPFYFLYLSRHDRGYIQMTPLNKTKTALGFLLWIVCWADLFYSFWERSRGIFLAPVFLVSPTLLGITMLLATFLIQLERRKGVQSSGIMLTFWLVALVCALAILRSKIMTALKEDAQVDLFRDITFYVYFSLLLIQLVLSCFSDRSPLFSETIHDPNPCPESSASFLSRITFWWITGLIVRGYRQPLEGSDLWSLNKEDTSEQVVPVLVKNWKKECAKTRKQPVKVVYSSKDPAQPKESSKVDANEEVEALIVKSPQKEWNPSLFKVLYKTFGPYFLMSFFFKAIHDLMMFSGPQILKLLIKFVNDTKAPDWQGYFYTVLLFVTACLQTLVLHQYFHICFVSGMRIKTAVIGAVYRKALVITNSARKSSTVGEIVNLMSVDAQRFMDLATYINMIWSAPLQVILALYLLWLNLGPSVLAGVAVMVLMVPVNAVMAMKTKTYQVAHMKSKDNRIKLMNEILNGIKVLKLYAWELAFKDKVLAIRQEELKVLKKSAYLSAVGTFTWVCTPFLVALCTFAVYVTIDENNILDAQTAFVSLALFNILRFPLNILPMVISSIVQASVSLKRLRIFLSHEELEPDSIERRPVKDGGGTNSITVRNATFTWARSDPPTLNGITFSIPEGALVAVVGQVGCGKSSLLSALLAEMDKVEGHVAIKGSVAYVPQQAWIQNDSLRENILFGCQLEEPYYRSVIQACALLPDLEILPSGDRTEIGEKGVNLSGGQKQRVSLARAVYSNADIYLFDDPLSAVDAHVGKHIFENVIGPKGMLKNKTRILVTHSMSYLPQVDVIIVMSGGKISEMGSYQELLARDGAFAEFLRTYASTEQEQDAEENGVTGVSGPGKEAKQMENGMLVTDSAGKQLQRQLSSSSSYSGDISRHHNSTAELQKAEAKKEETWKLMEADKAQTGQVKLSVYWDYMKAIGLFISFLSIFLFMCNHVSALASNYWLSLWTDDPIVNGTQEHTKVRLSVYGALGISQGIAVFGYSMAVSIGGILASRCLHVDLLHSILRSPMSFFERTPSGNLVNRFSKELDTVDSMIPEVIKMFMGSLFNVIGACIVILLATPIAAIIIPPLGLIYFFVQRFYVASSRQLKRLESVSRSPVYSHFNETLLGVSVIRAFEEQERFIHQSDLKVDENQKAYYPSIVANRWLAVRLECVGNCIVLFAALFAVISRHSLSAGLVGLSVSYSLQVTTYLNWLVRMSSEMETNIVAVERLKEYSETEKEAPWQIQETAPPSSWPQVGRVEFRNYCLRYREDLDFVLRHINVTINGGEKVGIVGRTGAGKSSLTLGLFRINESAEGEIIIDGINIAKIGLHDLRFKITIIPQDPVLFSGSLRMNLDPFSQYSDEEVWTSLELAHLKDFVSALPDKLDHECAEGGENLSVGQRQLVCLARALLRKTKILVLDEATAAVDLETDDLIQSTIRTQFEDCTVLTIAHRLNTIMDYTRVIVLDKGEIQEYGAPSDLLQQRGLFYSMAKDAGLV
# [13] = molecular target: T2, Broad substrate specificity ATP-binding cassette transporter ABCG2; experiment: Drug uptake assessed as human BCRP-mediated drug transport using inside-out membrane vesicles by measuring +ATP/-ATP ratio by LC-MS/MS analysis; format: ADME
SMILES,Ki (Liver microsome [1]),Km (Liver microsome [1]),Vmax (Liver microsome [1]),inhibition (INH) [2],Vmax/Km (Liver microsome [3]),uptake ratio (OATP2B1),Vmax/Km [4],Ki [5],Km [5],Vmax [5],inhibition (INH) [6],IC50 [7],IC50 [8],Ki (Liver microsome [9]),Km (Liver microsome [9]),Vmax (Liver microsome [9]),Ki [10],Ki [11],Km [11],Vmax [11],further results
O=C(O)[C@H]1O[C@@H](Oc2c(O)cc3oc(-c4ccc(O)cc4)cc(=O)c3c2O)[C@H](O)[C@@H](O)[C@@H]1O,24 µM,123 µM,15.6 nmol/min/mg,Active,91.3 µL/min/mg,20.4,110 µL/min/mg,11.8 µM,156 µM,17.1 nmol/min/mg,Active,20 µM,50 µM,78.3 µM,21.2 µM,1.94 nmol/min/mg,242 µM,79.2 µM,41.1 µM,1.23 nmol/min/mg,"Vmax ([10]; human, recombinant enzyme, 25 min): 0.221 nmol/min/mg; inhibition (INH) [12]: Active; Ratio [13]: 57.5"
O=C(O)[C@H]1O[C@@H](Oc2cc3oc(-c4ccc(O)cc4)cc(=O)c3c(O)c2O)[C@H](O)[C@@H](O)[C@@H]1O [SCUTELLARIN],133 µM,62.4 µM,0.736 nmol/min/mg,Active,204 µL/min/mg,65,18.5 µL/min/mg,59.5 µM,643 µM,11.9 nmol/min/mg,Not Active,10 µM,75 µM,302 µM,15.2 µM,3.1 nmol/min/mg,208 µM,79 µM,349 µM,6.6 nmol/min/mg,inhibition (INH) [12]: Active; Ratio [13]: 57.5
